# Test results as given in patent US4482560A, “Carbostyril derivatives, and antihistaminic agents containing the same” (priority 1979, dated 1984).
# Key:
# [1] = system: conjunctiva of the animal; test: Local anesthesia activity test; format: in vivo, guinea pig; details: 0.1% solution, 3 drops on conjunctiva, 60 stimulations in 30 minutes, four guinea pigs; saline control 0
# Description: Guinea pig having about 300 to 350 g of body weight were used as the test animals. Three (3) drops of 0.1%-test compound dissolved in physiological saline solution were administered through 1/4-sized injection needle on the surface of conjuctiva of the test animal. After the administration of the test solution, the conjunctiva of the animal was stimulated ten times in every 5 minutes by a stylet (mandrine) or 1/4-sized injection needle, the stimulations were repeated 6 times within 30 minutes, thus 60 stimulations were given to the conjunctiva of the animal. The number of disappearing of eye-closing-reflexes, during 30 minutes after the administration of the test solution was counted as to the effectiveness of the local anesthesia activity. In this test, four (4) guinea pigs were used as one test group, and the test solution containing 0.1% of the test compound was applied to one test group, and physiological saline solution was, on the other hand, applied to another test group of the guinea pigs as the control.
# Acute toxicity test = details: rat, in vivo; oral, male rats
# Text: Each of the compounds of the present invention was orally administered to male rats to determine the acute toxicity.
# ileum of a guinea pig = ileum of a guinea pig (Cavia porcellus, UniProt P31389); test: cell-based; details: histamine-induced retraction of guinea pig ileum, test compound 10^-6 g/ml, 36° C., Van Rossam method; for Kb: read-out: pA2 (converted)
# ileum of a guinea pig, sequence (P31389 whole entry): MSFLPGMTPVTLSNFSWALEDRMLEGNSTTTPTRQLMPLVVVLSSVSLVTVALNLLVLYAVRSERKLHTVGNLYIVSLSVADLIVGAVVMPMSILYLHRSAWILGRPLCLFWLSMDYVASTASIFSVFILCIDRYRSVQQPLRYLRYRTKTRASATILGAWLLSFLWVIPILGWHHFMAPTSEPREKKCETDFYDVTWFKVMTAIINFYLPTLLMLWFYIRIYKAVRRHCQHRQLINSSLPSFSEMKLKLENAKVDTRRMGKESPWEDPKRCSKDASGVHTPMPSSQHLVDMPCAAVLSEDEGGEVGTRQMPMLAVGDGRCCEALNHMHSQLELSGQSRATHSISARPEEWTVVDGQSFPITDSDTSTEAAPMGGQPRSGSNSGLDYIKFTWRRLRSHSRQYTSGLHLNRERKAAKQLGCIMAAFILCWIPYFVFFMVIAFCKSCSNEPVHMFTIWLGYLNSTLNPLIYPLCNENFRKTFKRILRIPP
# Description: Pharmacological tests of the present compounds were conducted according to said method as follows:
# A male guinea pig having 300 to 500 g body weight is killed by blood letting. An ileum having length of 15 cm being enucleated from the ileocecal region is dipped into Tyrode's solution (which is prepared from 8.0 g of NaCl, 0.2 g of KCl, 0.2 g of CaCl2, 1.0 g of glucose, 1.0 g of NaHCO3, 0.065 g of NaHPO4.2H2 O and 0.2135 g of MgCl2.6H2 O to make 1000 ml in total volume by adding water). Then the tissue of ileum is cut to a length of 2.5 to 3.0 cm and suspended in an organ bath filled with 30 ml of Tyrode's solution. The organ bath is kept a temperature of 36° C. while blowing a mixed gas consisting of 5% of CO2 and 95% of O2 into the bath. 10 Minutes after the blowing, 10^-6 M of histamine is added to the bath to examine the sensitivity of the tissue and a reaction curve (control) with respect to the dosage of histamine is obtained. After the dosage of histamine-reaction curve (control) become constant 10^-6 g/ml of a compound to be tested is added to the bath and further histamine is added 5 minutes later to obtain dosage-reaction curve. Retraction of the ileum is recorded on a pen-recorder through an isotonic transducer (TD-112S manufactured by Nihon Koden).
# Male mice of ddy-strain = test: Halothane anesthesia increasing activity; format: in vivo, mouse; details: oral, 32 mg/kg, 1 hour before 4% Halothane for 3 minutes, male ddy mice; saline control 4.2
# Description: Male mice of ddy-strain having about 20 g body weight were used. One test group consists of 10 mice. An aqueous Gummi Arabicum suspension of test compound (80 mg of a compound to be tested and 1 g of Gummi Arabicum/100 ml of physiological NaCl solution) was administered orally to each mouse at the dosage of 32 mg of test compound/kg body. One hour after the administration, each mouse was placed in gas respiration chamber (13×13×24 cm) and oxygen gas containing 4% of Halothane [2-bromo-2-chloro-1,1,1-trifluoroethane] was blown into the chamber at the velocity of 2 l/min for 3 minutes. A mouse anaesthetized was taken out from the chamber and the time between the introduction of anesthesia to waking was measured by righting reflex as the index. To mice of control group, 1% Gummi Arabicum aqueous physiological solution was orally administered at the dosage of 0.1 ml/kg body. (Reference: M. J. Turnbull and J. W. Watkins: Br. J. Pharmacol., 58, 27-35 (1976))
Structure (SMILES),Number of eye-closing reflex (number of disappearing of eye-closing-reflexes during 30 minutes) [1],LD50 (Acute toxicity test),Kb (ileum of a guinea pig),Time (minutes) between introduction of anesthesia and waking (righting reflex) (Male mice of ddy-strain),pA2 (ileum of a guinea pig)
"Cc1cc(=O)n(C)c2cc(OCCCN3CCN(Cc4ccc(Cl)cc4)CC3)ccc12 [C, 1,4-Dimethyl-7-{3-[4-(4-chlorobenzyl)-1-piperazin-1-yl]propoxy}-2-oxo-1,2-dihydroquinoline, reference compound]",2.8,,,,
"O=C1CCc2c(cccc2OCCCN2CCC(Cc3ccccc3)CC2)N1 [Compound 1, 5-[3-(4-Benzyl-1-piperidyl)propoxy]-3,4-dihydrocarbostyril]",55.1,> 1000 mg/kg,0.302 nM,4.7 min,
"CN1C(=O)CCc2ccc(OCCCN3CCC(Cc4ccccc4)CC3)cc21.O=C(O)C(=O)O [Compound 2, 1-Methyl-7-[3-(4-benzyl-1-piperidyl)propoxy]-3,4-dihydrocarbostyril monooxalate]",58.0,> 1000 mg/kg,0.02 nM,4.9 min,
"O=C1CCc2ccc(OCC(O)CN3CCC(c4ccccc4)CC3)cc2N1 (stereo not shown) [Compound 9, 7-[2-Hydroxy-3-(4-phenyl-1-piperidyl)propoxy]-3,4-dihydrocarbostyril]",29.2,> 1000 mg/kg,0.129 nM,4.1 min,
"CN1C(=O)CCc2c(OCC(O)CN3CCC(Cc4ccccc4)CC3)cccc21.O=C(O)C(=O)O (stereo not shown) [Compound 10, 1-Methyl-5-[2-hydroxy-3-(4-benzyl-1-piperidyl)-propoxy]-3,4-dihydrocarbostyril monooxalate]",37.3,> 1000 mg/kg,0.24 nM,4.8 min,
"C[N+]1(CC(O)COc2cccc3c2CCC(=O)N3)CCC(c2ccccc2)CC1 (stereo not shown) [Compound 11, 4-Phenyl-1-[2-hydroxy-3-(2-oxo-1,2,3,4-tetra-hydroquinolin-5-yloxy)propyl]-1-methyl-piperidium iodide]",27.6,> 1000 mg/kg,5.89 nM,5.2 min,
"O=c1cc(-c2ccccc2)c2ccc(OCCCN3CCC(c4ccccc4)CC3)cc2[nH]1 [Compound 13, 4-Phenyl-7-[3-(4-phenyl-1-piperidyl)propoxy]-carbostyril monohydrochoride]",28.0,> 1000 mg/kg,0.186 nM,5.6 min,
"CC(=O)C1(c2ccccc2)CCN(CCCOc2ccc3c(c2)NC(=O)CC3)CC1 [Compound 15, 7-{3-[4-(4-Acetyl-4-phenyl)-1-piperidyl]}-3,4-dihydrocarbostyril]",35.5,> 1000 mg/kg,,4.7 min,9.92
"Cc1cc(=O)n(C)c2ccc(OCCCN3CCN(Cc4ccc(Cl)cc4)CC3)cc12 [D, reference compound]",3.8,,,,
"Cc1cc(=O)[nH]c2cc(OCCCN3CCN(Cc4ccccc4)CC3)ccc12 [E, 4-Methyl-7-[3-(4-benzyl-piperazin-1-yl)-propoxy]-2-oxo-1,2-dihydroquinoline, reference compound]",5.2,,,,
